The record followed here is patent US6720423B2, “Dihydrobenzofuran and dihydrobenzothiophene 2,4-pentadienoic acid derivatives having selective activity for retinoid X (RXR) receptors” (Allergan, Inc., priority 2002, dated 2004).

Broadly, the EC50 is the concentration at which the effect is half-maximal. What is called Ki is the equilibrium dissociation constant of an inhibitor or competing ligand from its target.

One experiment deals with T1, RXRα (Homo sapiens, UniProt P19793).
T1 construct: the only RXRα plasmid printed
T1 sequence (P19793 227-462 limits assumed): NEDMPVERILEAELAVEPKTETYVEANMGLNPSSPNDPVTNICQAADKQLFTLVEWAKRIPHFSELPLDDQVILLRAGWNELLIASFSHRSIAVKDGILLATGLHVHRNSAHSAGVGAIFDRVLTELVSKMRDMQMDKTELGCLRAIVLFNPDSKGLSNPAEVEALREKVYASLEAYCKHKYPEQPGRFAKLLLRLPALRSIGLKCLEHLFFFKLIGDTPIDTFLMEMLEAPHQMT
The experiment in a line: receptor transactivation assay, RXRα. The conditions noted are these: first entry of cell, read-out: RXR Trans. EC50 (nM) α. It counts as cell-based. The source says:
(§1) A holoreceptor transactivation assay and a ligand binding assay which measure the antagonist/agonist like activity of the compounds of the invention, or their ability to bind to the several retinoid receptor subtypes, respectively, are described in published PCT Application No. WO WO93/11755 (particularly on pages 30-33 and 37-41) published on Jun. 24, 1993, the specification of which is also incorporated herein by reference. A detailed experimental procedure for holoreceptor transactivations has been described by Heyman et al. Cell 68, 397-406, (1992); Allegretto et al. J. Biol. Chem. 268, 26625-26633, and Mangelsdorf et al. The Retinoids: Biology, Chemistry and Medicine, pp 319-349, Raven Press Ltd., New York, which are expressly incorporated herein by reference. The results obtained in this assay are expressed in EC50 numbers, as they are also in the chimeric receptor transactivation assay. The results of ligand binding assay are expressed in Kd numbers. (See Cheng et al. Biochemical Pharmacology Vol. 22 pp 3099-3108, expressly incorporated herein by reference.)

A further experiment deals with T2, RARβ (Homo sapiens, UniProt P10826).
T2 sequence (P10826 1-455): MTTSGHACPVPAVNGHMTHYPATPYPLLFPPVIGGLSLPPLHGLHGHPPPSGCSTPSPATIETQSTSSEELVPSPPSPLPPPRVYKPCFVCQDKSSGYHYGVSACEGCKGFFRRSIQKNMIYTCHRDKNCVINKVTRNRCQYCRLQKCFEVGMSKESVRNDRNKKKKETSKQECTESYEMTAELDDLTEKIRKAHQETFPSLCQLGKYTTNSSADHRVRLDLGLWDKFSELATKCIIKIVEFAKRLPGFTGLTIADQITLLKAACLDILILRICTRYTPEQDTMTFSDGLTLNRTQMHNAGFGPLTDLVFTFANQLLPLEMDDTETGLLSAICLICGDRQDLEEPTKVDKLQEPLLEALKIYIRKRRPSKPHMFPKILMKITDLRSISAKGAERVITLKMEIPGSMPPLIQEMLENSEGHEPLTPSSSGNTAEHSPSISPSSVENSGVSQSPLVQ
Briefly: ligand binding assay, RARβ. Conditions: second entry of cell, read-out: RAR Bind. Ki (nM) β.
From the text: as §1

The target in experiment [1] is T3, RXRβ (UniProt P28704).
T3 sequence (P28704 1-520): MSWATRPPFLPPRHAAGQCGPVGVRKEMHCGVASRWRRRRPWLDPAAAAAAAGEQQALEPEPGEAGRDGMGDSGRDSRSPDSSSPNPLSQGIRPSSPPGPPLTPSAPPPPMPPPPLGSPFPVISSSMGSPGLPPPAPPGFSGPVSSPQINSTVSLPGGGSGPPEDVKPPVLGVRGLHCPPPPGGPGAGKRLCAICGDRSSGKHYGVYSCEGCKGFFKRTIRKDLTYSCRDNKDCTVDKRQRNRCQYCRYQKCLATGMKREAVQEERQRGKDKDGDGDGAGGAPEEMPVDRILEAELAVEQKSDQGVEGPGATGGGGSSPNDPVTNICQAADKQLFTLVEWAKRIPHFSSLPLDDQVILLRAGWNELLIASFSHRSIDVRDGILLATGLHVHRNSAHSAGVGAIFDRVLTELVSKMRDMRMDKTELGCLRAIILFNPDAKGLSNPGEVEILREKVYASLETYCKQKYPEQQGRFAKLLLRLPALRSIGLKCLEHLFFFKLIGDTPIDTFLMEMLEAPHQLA
The experiment in a line: ligand binding assay, RXRβ. Also noted: other: RXRβ; last entry of cell. Conditions: last entry of cell, read-out: RXR Bind Ki (nM) β.
From the text: as §1

Experiment [2] concerns the target T3, RXRβ. Briefly: receptor transactivation assay, RXRβ. The class given is cell-based. Also noted: RXR Trans; other: RXRβ; first entry of cell. Conditions: for EC50: first entry of cell, read-out: RXR Trans. EC50 (nM) β; for RXR Trans. β, number in parentheses after EC50: parenthesised number, not defined in the patent.
From the text: as §1

Another experiment concerns the target T4, RXRγ (UniProt P28705).
T4 sequence (P28705 1-463): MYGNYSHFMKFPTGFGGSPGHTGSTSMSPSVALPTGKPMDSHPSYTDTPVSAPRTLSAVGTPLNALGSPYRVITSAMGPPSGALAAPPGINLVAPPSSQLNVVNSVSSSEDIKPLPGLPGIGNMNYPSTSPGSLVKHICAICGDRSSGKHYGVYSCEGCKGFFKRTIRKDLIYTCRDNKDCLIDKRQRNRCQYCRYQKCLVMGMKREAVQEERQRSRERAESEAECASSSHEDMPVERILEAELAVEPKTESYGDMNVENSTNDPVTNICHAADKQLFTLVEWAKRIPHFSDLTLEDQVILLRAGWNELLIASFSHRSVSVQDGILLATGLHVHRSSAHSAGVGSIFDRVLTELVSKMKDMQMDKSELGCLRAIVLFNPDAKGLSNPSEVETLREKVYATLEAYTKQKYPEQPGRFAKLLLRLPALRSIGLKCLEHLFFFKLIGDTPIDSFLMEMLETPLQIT
Briefly: receptor transactivation assay, RXRγ. It counts as cell-based. Also noted: RXR Trans; other: RXRγ; first entry of cell. The conditions noted are these: for EC50: first entry of cell, read-out: RXR Trans. EC50 (nM) γ; for RXR Trans. γ, number in parentheses after EC50: parenthesised number, not defined in the patent.
From the text: as §1

Consider `CC(/C=C/[C@@H]1C[C@]1(C)c1cc(-c2ccc(C(C)(C)C)cc2)c2c(c1)C(C)(C)CO2)=C\C(=O)O` [Compound 30, 5-{(1S, 2S)-2-[7-(4-tert-Butyl-phenyl)-3,3-dimethyl-2,3-dihydro-benzofuran-5-]-2-methyl-cyclopropyl}-3-methyl-pent-2E,4E-dienoic Acid], for which the EC50 is 1520 nM at RXRα, over 1000 nM on RXRβ [2] and over 1000 nM on RXRγ. The Ki at RARβ is over 10000 nM; on RXRβ [1] it was 441 nM. At RXRβ [2], the “RXR Trans. β, number in parentheses after EC50” value (“RXR Trans. β, number” below) was 50. The “RXR Trans. γ, number in parentheses after EC50” value (from here on “RXR Trans. γ, number”) at RXRγ worked out at 80.

In the case of `COc1ccc(-c2cc([C@@]3(C)C[C@H]3/C=C/C(C)=C/C(=O)O)cc3c2OCC3(C)C)cc1` [Compound 32, (E)-3-((E)-2-{(1S,2S)-2-[7-(4-Methoxy-phenyl)-3,3-dimethyl-2,3-dihydro-benzofuran-5-yl]-2-methyl-cyclopropyl}-vinyl)-but-2-enoic acid], the EC50 on RXRα is 581 nM; at RXRβ [2], over 1000 nM; on RXRγ, 561 nM. Also, the Ki came to 15000 nM on RARβ and 926 nM at RXRβ [1]. For the same compound, on RXRγ, the “RXR Trans. γ, number” value turned out to be 106.

Consider `CC(/C=C/[C@@H]1C[C@]1(C)c1cc(CC(C)(C)C)c2c(c1)C(C)(C)CO2)=C\C(=O)O` [Compound 12, 5-{(1S,2S) 2-[7-(2,2-Dimethyl-propyl)-3,3-dimethyl-2,3-dihydro-benzofuran-5-yl]-2-methyl-cyclopropyl}-3-methyl-penta-2E,4E-dienoic Acid], for which the EC50 on RXRα was determined as 0.246 nM; at RXRβ [2] it was 1.67 nM; at RXRγ, 0.42 nM. Moreover, the Ki at RARβ was 9510 nM; at RXRβ [1], 1.5 nM. For the same compound, the “RXR Trans. β, number” value at RXRβ [2] is reported as 93. Moreover, the “RXR Trans. γ, number” value on RXRγ is 101.

For `CC(/C=C/[C@@H]1C[C@]1(C)c1ccc2c(c1)C(C)(C)CO2)=C\C(=O)O` [Compound 2, (6S,7S)-7-[5-(3,3-Dimethyl-2,3-dihydro-benzofuranyl)]-6.7-methano-3-methyl-octa-2E,4E-dienoic Acid], the results for the EC50 at RXRα, on RXRβ [2] and at RXRγ were 1.1 nM, 9.8 nM and 2.7 nM, respectively. In addition, the Ki on RARβ was over 10000 nM; at RXRβ [1], 21.1 nM. Besides, the “RXR Trans. β, number” value at RXRβ [2] was 106. Moreover, the “RXR Trans. γ, number” value on RXRγ worked out at 119.

In the case of `CC(/C=C/[C@@H]1C[C@]1(C)c1cc(Br)c2c(c1)C(C)(C)CO2)=C\C(=O)O` [Compound 20, (6S,7S)-7-[5-(7-Bromo-3,3-dimethyl-2,3-dihydro-benzofuranyl)]-6,7-methano-3-methyl-octa-2E,4E-dienoic Acid], the figures for the EC50 on RXRα, on RXRβ [2] and at RXRγ were 2.4 nM, 12 nM and 3.4 nM, respectively. The figures for the Ki on RARβ and on RXRβ [1] were over 10000 nM and 21.5 nM, respectively. Moreover, the “RXR Trans. β, number” value at RXRβ [2] is on record as 108. For the same compound, at RXRγ, the “RXR Trans. γ, number” value is reported as 111.

Turning to `CCCCCCCc1ccccc1-c1cc([C@@]2(C)C[C@H]2/C=C/C(C)=C/C(=O)O)cc2c1OCC2(C)C` [Compound 28], the EC50 was 594 nM on RXRα, over 1000 nM at RXRβ [2] and 850 nM on RXRγ. The values for the Ki at RARβ and at RXRβ [1] were 3740 nM and 111 nM, respectively. The “RXR Trans. γ, number” value at RXRγ is given as 88.

With `CC(/C=C/[C@@H]1C[C@]1(C)c1cc(C(C)C)c2c(c1)C(C)(C)CO2)=C\C(=O)O` [Compound 8, (6S,7S)-7-[5-(3,3-Dimethyl-7-iso-propyl-2,3-dihydro-benzofuranyl)]-6,7-methano-3-methyl-octa-2E,4E-dienoic Acid], the results for the EC50 on RXRα, at RXRβ [2] and on RXRγ were 0.159 nM, 0.66 nM and 0.23 nM, respectively. Further, the Ki at RARβ is 41000 nM; on RXRβ [1] it was 10.6 nM. Further, the “RXR Trans. β, number” value at RXRβ [2] is 110. Besides, the “RXR Trans. γ, number” value on RXRγ is 108.

Consider `CCc1cc([C@@]2(C)C[C@H]2/C=C/C(C)=C/C(=O)O)cc2c1OCC2(C)C` [Compound 6], for which the 50% effective concentration (EC50) on RXRα came to 0.3 nM; on RXRβ [2], 2.8 nM; on RXRγ it was 0.56 nM. The Ki at RARβ is over 30000 nM; on RXRβ [1], 1.8 nM. Also, at RXRβ [2], the “RXR Trans. β, number” value is listed as 75. In addition, the “RXR Trans. γ, number” value at RXRγ was determined as 85.

As to `CC(/C=C/[C@@H]1C[C@]1(C)c1cc(C)c2c(c1)C(C)(C)CO2)=C\C(=O)O` [Compound 4, (6S,7S)-7-[5-(3,3,7-Trimethyl-2,3-dihydro-benzofuranyl)]-6,7-methano-3-methyl-octa-2E,4E-dienoic acid], the figures for the EC50 on RXRα, on RXRβ [2] and at RXRγ were 2.9 nM, 21 nM and 4.4 nM, respectively. In addition, the Ki at RARβ was over 10000 nM; on RXRβ [1] it was 74 nM. The “RXR Trans. β, number” value on RXRβ [2] stood at 108. Besides, the “RXR Trans. γ, number” value at RXRγ is listed as 108.

Take `CC(/C=C/[C@@H]1C[C@]1(C)c1cc(Cc2ccccc2)c2c(c1)C(C)(C)CO2)=C\C(=O)O` [Compound 14, (6S,7S)-7-[5-(7-Benzyl-3,3-dimethyl-2,3-dihydro-benzofuranyl)]-6,7-methano-3-methyl-octa-2E,4E-dienoic Acid]: the values for the EC50 on RXRα, on RXRβ [2] and at RXRγ were 0.086 nM, 0.515 nM and 0.0973 nM, respectively. For the same compound, the figures for the Ki at RARβ and at RXRβ [1] were 4770 nM and 1.1 nM, respectively. Besides, at RXRβ [2], the “RXR Trans. β, number” value was determined as 114. Further, at RXRγ, the “RXR Trans. γ, number” value was 105.

`CCCCCCc1cc([C@@]2(C)C[C@H]2/C=C/C(C)=C/C(=O)O)cc2c1OCC2(C)C` [Compound 18, (6S,7S)-7-[5-(3,3-Dimethyl-7-hexyl-2,3-dihydro-benzofuranyl)]-6,7-methano-3-methyl-octa-2E,4E-dienoic acid]: the EC50 on RXRα stood at 0.25 nM; on RXRβ [2], 2.8 nM; on RXRγ, 0.36 nM. Also, the Ki at RARβ amounted to 15000 nM; at RXRβ [1] it was 5.1 nM. In addition, the “RXR Trans. β, number” value on RXRβ [2] turned out to be 96. Besides, the “RXR Trans. γ, number” value at RXRγ was determined as 99.
